According to patent US6063777A, “Iminochlorinaspartic acid derivatives” (Wyeth Lederle Japan, Ltd., priority 1996, dated 2000):
Values after ≈ are worked out from the molar mass of the structure shown.

Experiments:
[1] = test system: choroidal neoplastic vessels; test: Occlusion of choroidal neoplastic vessels by PDT, histological findings 24 hours after laser irradiation; format: in vivo, rats (Long Evance Rats); conditions: for Occlusion of choroidal neoplastic vessels: 16 mg/kg
Protocol: (§1) The following experiments were performed to investigate the optimal treatment parameters (timing of laser irradiation after dosing of the compound; laser irradiation dosage) for selective occlusion of choroidal neoplastic vessels by PDT using the compound of the present invention and a diode laser (produced by Hamamatsu Photonics; wavelength: 672 nm).
(§2) Photocoagulation was induced in rats (Long Evance Rats weighing 200-300 g) by Argon green laser irradiation (irradiation diameter: 100 μm, 140 mW, 0.1 sec) near the retinal papilla on funduc oculi. Ten days after photocoagulation, fundus photographs and fluorescein angiographs were taken and the animals showing development of choroidal neovascularization were used for experiments at the 11th day.
(§3) The compound of the present invention was administered via the tail vein at a dose of 16 mg/kg. After administration, time course distribution of the compound in the eyeball tissues was observed by fluorescence microscopy.
(§4) Laser irradiation was done by using the above-mentioned diode laser. The laser beam was confirmed to extend in the range of 500 μm in diameter on the retinal surface. Duration of irradiation was 4 minutes and the irradiation intensity varied at 30.6, 91.7, 152.9 and 244.9 mW/cm^2 on the retinal surface. These values correspond to 7.4, 22.0, 36.7 and 58.8 J/cm^2, respectively.
(§5) Assessment of the PDT using the compound of the present invention was made based on the fundus photographs taken with a fundus camera (produced by Jenesis Kowa) at 1 hour and 24 hours after laser irradiation. Occlusion of the neoplastic vessels and damage to the surrounding tissues were investigated by fluorescein antiography and histological examinations to assess the selectivity of the therapeutic effect.

[2] = test system: choriocapillaris; test: Occlusion of choriocapillaris by PDT, histological findings 24 hours after laser irradiation; format: in vivo, rats (Long Evance Rats); conditions: 16 mg/kg
Protocol: as §1, §2, §3, §4, §5

[3] = test system: choroidal arteries and veins; test: Occlusion of choroidal arteries and veins by PDT, histological findings 24 hours after laser irradiation; format: in vivo, rats (Long Evance Rats); conditions: 16 mg/kg
Protocol: as §1, §2, §3, §4, §5

[4] = Preliminary experiments: blood half-life after intravenous administration; format: in vivo; conditions: rats and rabbits
[5] = test system: eyeball tissues; test: Time course distribution of the compound in eyeball tissues by fluorescence microscopy; format: in vivo, rats (Long Evance Rats); conditions: 16 mg/kg tail vein
Protocol: as §2, §3

[6] = test system: albumin; test: Albumin test (change in UV absorption spectrum in mixture with albumin); format: binding
Source text: (§6) When compound (I) was examined by albumin test [that is, a convenient test method for evaluating the affinity to cancerous tissues, in which a chlorin derivative is examined on the change in ultraviolet (UV) absorption spectrum in a mixture form with albumin and in which one of the present inventors has found a certain rule] and dancyl methionine test [that is, a convenient test method for evaluating the strength of the photoreactivity by thin layer chromatography (TLC) or high performance liquid chromatography (HPLC)]

[7] = Dancyl methionine test (photoreactivity by TLC or HPLC)
Source text: as §6

[8] = Absorption wavelength / molar absorption coefficient; format: physicochemical
[9] = Water solubility; format: physicochemical
[10] = Stability in vivo and in vitro
[11] = Phosphorescence life time; format: physicochemical
[12] = test system: cancerous tissues; test: Accumulability to cancerous tissues and excretion from normal tissues (general findings); format: in vivo
[13] = 7.4 J/cm^2, irradiation 60 min after administration
[14] = 7.4 J/cm^2, irradiation immediately after administration
[15] = 22.0 J/cm^2, irradiation 60 min after administration
[16] = 22.0 J/cm^2, irradiation 120 min after administration
[17] = 22.0 J/cm^2, irradiation 240 min after administration
[18] = 22.0 J/cm^2, irradiation immediately after administration
[19] = 36.7 J/cm^2, irradiation 60 min after administration
[20] = 36.7 J/cm^2, irradiation 120 min after administration
[21] = 36.7 J/cm^2, irradiation 240 min after administration
[22] = 36.7 J/cm^2, irradiation immediately after administration
[23] = 58.8 J/cm^2, irradiation 60 min after administration
[24] = 58.8 J/cm^2, irradiation 120 min after administration
[25] = 58.8 J/cm^2, irradiation 240 min after administration
[26] = 58.8 J/cm^2, irradiation immediately after administration
[27] = 7.4 J/cm^2, irradiation 120 min after administration
[28] = 7.4 J/cm^2, irradiation 240 min after administration

**Q.** What does the source list for `C=Cc1c(C)c2cc3nc(cc4[nH]c(cc5nc(cc1[nH]2)C(C)=C5CCC(=O)NC(CC(=O)O)C(=O)O)c(CCC(=O)NC(CC(=O)O)C(=O)O)c4C)C(C)(O)C3=CC=NO` (stereo not drawn) [Compound (I)]?
**A.** Occlusion of choroidal neoplastic vessels [1, 13]: Closed; Occlusion of choroidal neoplastic vessels [1, 14]: Closed; selective occlusion of choroidal neoplastic vessels and choriocapillaris ([1]; 7.4 J/cm^2 immediately after administration): selective occlusion of the choroidal neoplastic vessels and choriocapillaris was achieved without causing serious damage to the retinal capillaries and choroidal arteries and veins; Occlusion of choroidal neoplastic vessels [1, 15]: Closed; Occlusion of choroidal neoplastic vessels [1, 16]: Closed; Occlusion of choroidal neoplastic vessels [1, 17]: Closed; Occlusion of choroidal neoplastic vessels [1, 18]: Closed; selective occlusion of choroidal neoplastic vessels and choriocapillaris ([1]; 22.0 J/cm^2 at 2-4 hours after administration): selective occlusion of the choroidal neoplastic vessels and choriocapillaris was achieved without causing serious damage to the retinal capillaries and choroidal arteries and veins; Occlusion of choroidal neoplastic vessels [1, 19]: Closed; Occlusion of choroidal neoplastic vessels [1, 20]: Closed; Occlusion of choroidal neoplastic vessels [1, 21]: Closed; Occlusion of choroidal neoplastic vessels [1, 22]: Closed; Occlusion of choroidal neoplastic vessels [1, 23]: Cldsed; Occlusion of choroidal neoplastic vessels [1, 24]: Closed; Occlusion of choroidal neoplastic vessels [1, 25]: Closed; Occlusion of choroidal neoplastic vessels [1, 26]: Closed; Occlusion of choriocapillaris [2, 13]: Closed; Occlusion of choriocapillaris [2, 27]: Open; Occlusion of choriocapillaris [2, 28]: Open; Occlusion of choriocapillaris [2, 14]: Closed; Occlusion of choriocapillaris [2, 15]: Closed; Occlusion of choriocapillaris [2, 16]: Closed; Occlusion of choriocapillaris [2, 17]: Closed; Occlusion of choriocapillaris [2, 18]: Closed; Occlusion of choriocapillaris [2, 19]: Closed; Occlusion of choriocapillaris [2, 20]: Closed; Occlusion of choriocapillaris [2, 21]: Closed; Occlusion of choriocapillaris [2, 22]: Closed; Occlusion of choriocapillaris [2, 23]: Closed; Occlusion of choriocapillaris [2, 24]: Closed; Occlusion of choriocapillaris [2, 25]: Closed; Occlusion of choriocapillaris [2, 26]: Closed; Occlusion of choroidal arteries and veins [3, 13]: Closed; Occlusion of choroidal arteries and veins [3, 27]: Open; Occlusion of choroidal arteries and veins [3, 28]: Open; Occlusion of choroidal arteries and veins [3, 15]: Closed; Occlusion of choroidal arteries and veins [3, 16]: Open; Occlusion of choroidal arteries and veins [3, 17]: Open; Occlusion of choroidal arteries and veins [3, 19]: Closed; Occlusion of choroidal arteries and veins [3, 20]: Open; Occlusion of choroidal arteries and veins [3, 21]: Open; Occlusion of choroidal arteries and veins [3, 22]: Closed; Occlusion of choroidal arteries and veins [3, 23]: Closed; Occlusion of choroidal arteries and veins [3, 24]: Open; Occlusion of choroidal arteries and veins [3, 25]: Open; Occlusion of choroidal arteries and veins [3, 26]: Closed; compound in blood ([4]; after 24 hours, intravenous): undetectable in blood after 24 hours; half-life ([4]; blood, intravenous administration): 30 min; fluorescence in choroid, lumens of choriocapillaris, choroidal arteries and veins ([5]; 5 minutes after administration): fluorescence was observed in the lumens of the choriocapillaris, choroidal arteries and veins; fluorescence in choroidal artery wall ([5]; 5 minutes after administration): also observed in the choroidal artery wall; fluorescence in retina, artery wall ([5]; 5 minutes after administration): prominent fluorescence was observed in the artery wall; fluorescence in retina, lumens of the blood capillaries ([5]; 5 minutes after administration): weak fluorescence was observed in the lumens of the blood capillaries; fluorescence in the entire choroidal neovascular tissues ([5]; 5 minutes after administration): weak fluorescence; fluorescence intensity, neoplastic vessels versus surrounding tissues ([5]; 5 minutes after administration): did not clearly differ between the neoplastic vessels and the surrounding tissues; fluorescence from the whole neoplastic vessels ([5]; 30 minutes to 1 hour after administration): fluorescence from the whole neoplastic vessels increased; fluorescence in choroidal artery wall ([5]; 2 hours after administration): prominent fluorescence was observed in the choroidal artery wall; fluorescence in lumens of large choroidal vessels and retinal artery wall ([5]; 2 hours after administration): diminished; fluorescence in the choriocapillaris veins ([5]; 2 hours after administration): disappeared; fluorescence in choroidal artery wall and retinal vessels ([5]; 4 hours after administration): gradually diminished; fluorescence in the choroidal neoplastic vessels ([5]; 4 hours after administration): persisted; fluorescence in choroidal neoplastic vessels and other vessels ([5]; 24 hours after administration): all disappeared; affinity to albumin [6]: good affinity to albumin; transferability to cancerous tissues (albumin test) [6]: excellent transferability to cancerous tissues; photosensitivity (dancyl methionine test) [7]: strong photosensitivity; cell killing effect when exposed to light ([7]; dancyl methionine test): good cell killing effect when exposed to light; longest wavelength absorption end [8]: ≥ 670 nm; water solubility [9]: good water solubility; solubility ([9]; water, aqueous solution, read-out: high concentration solution (water solubility)): 50 mg/mL (≈ 59.5 mM); stability in vivo and in vitro [10]: high stability in vivo, as well as in vitro; phosphorescence life time [11]: long phosphorescence life time; accumulability to cancerous tissues ([12]; compared with compound of formula (II)): remarkably superior accumulability to cancerous tissues as compared with the compound of formula (II); excretion from normal tissues ([12]; in vivo): quick excretion property from normal tissues
